# Measured values from patent US20240239801A1, “PYRIMIDO[5,4,D]PYRIMIDINE COMPOUNDS, COMPOSITIONS COMPRISING THEM AND USES THEREOF” (Université de Montréal, priority 2021, published 2024).
# What was measured:
# Format in all cases: biochemical
# [1] = target: T1, ARAF (Homo sapiens, UniProt P10398); assay: ARAF kinase activity assay (AlphaLISA p-MEK detection); conditions: Table A
# T1 sequence (P10398 310-570 limits assumed): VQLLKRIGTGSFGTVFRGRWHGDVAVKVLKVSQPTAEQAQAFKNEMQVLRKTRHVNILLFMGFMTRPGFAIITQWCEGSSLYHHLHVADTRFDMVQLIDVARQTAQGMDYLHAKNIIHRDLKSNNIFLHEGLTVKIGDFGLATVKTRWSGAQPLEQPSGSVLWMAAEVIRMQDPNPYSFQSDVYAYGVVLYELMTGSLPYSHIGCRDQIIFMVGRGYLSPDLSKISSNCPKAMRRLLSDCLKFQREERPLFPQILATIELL
# Procedure: Compound preparation: solid samples of each substances in 1dram vials were suspended in DMSO (Fisher Scientific) at a stock concentration of 20 mM. Stocks were kept at −20° C. and protected from light. If solubility of the compound at 20 mM appeared to be an issue, the initial concentration of the DMSO stock was changed to 10 mM or 5 mM.
# In vitro enzymatic reactions were used for evaluating compounds intrinsic activity against BRAF, CRAF and ARAF. For BRAF and CRAF, 0.375 nM of purified GST-tagged kinases (cat #B4062-10UG and cat #R1656-10UG respectively from Millipore Sigma) were incubated with 75 nM of kinase-dead MEK1 substrate (cat #40075; BPS Bioscience) in the presence of 10 μM of Ultrapure ATP (cat #V9102; Promega; part V915A) with and without the test compound in a buffer containing 50 mM HEPES pH 7.5, 10 mM MgCl2, 1 mM EDTA, 0.01% Brij-35 and 2 mM DTT. Separate reactions were performed with the MEK1 substrate and ATP as a blank control. ARAF, kinase reactions were rigorously the same with the exception that kinase concentration was raised to 3.75 nM (cat #1768-0000-1; Reaction Biology).
# For compound treatment, 5 μL/well of test substance solution are placed in a 384-well proxyplate (Perkin Elmer) and mixed with 2× concentrated kinase reactions. The dilution series is selected so that nine concentrations cover a range from 100 nM to 0.01 nM. […] The final concentration of DMSO in the assay is set at 0.05%.
# ARAF kinase reactions were carried out for a total of 2 hours at 30° C. and then stopped by addition of EDTA at a final concentration of 40 mM. Reactions were then detected using the AlphaLISA® SureFire® Ultra™ p-MEK ½ (Ser218/222) (PerkinElmer) kit. Reactions were performed with 5 μL of kinase reaction according to the manufacturer's specifications in 384-well proxyplates (Perkin Elmer) followed by overnight incubation of the reactions at room temperature in a humidified chamber. After completion of the detection reactions, the signals were recorded on a Synergy Neo2 plate reader (Biotek) equipped with AlphaLISA® filters. The effect of each compound dilution on the pMEK signal generated by ARAF reactions was expressed in % inhibition and calculated as follows. An internal 100% inhibition control (average of luminescence in kinase reactions comprising kinase dead MEK1 substrate alone) was included in each plate to measure of pMEK background and was subtracted from each data point. The average of DMSO (vehicle) controls (set as 0% inhibition) was also established and used to calculate % inhibition:
# IC50 values were obtained by plotting the kinase inhibition values and fitting the dose-activity curves using a log(agonist) versus response−variable slope (four parameters) function using either GraphPadPrism (V7.0) or Dotmatics Screening Ultra platform. Standards included in the ARAF kinase assay were Belvarafenib (MedChem Express cat #HY-109080; CAS #1446113-23-0), LXH254 (MedChem Express cat #HY-112089; CAS #1800398-38-2) and BGB283 (cat #HY-18957; CAS #1446090-79-4).
# [2] = target: T2, BRAF (Homo sapiens, UniProt P15056); assay: BRAF kinase activity assay (ADP-Glo); conditions: Table 3
# T2 construct: GST; purchased Millipore Sigma B4062-10UG
# Outline: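 GST-tagged BRAF (0.375 nM) was reacted with 75 nM kinase-dead MEK1 and 10 μM ATP for 2 h at 30 °C in HEPES pH 7.5 buffer with MgCl2, EDTA, Brij-35 and DTT. Compounds were tested at nine concentrations from 100 nM to 0.01 nM with 0.05% DMSO final. ADP-Glo luminescence gave % inhibition, and IC50 came from a four-parameter fit.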
# [3] = target: CRAF (Homo sapiens, UniProt P04049); assay: CRAF kinase activity assay (ADP-Glo); conditions: Table 3
# Outline: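 CRAF inhibition was measured by ADP-Glo. 0.375 nM purified GST-tagged CRAF was combined with 75 nM kinase-dead MEK1 substrate and 10 μM ATP in 50 mM HEPES pH 7.5, 10 mM MgCl2, 1 mM EDTA, 0.01% Brij-35 and 2 mM DTT, with nine compound concentrations from 100 nM to 0.01 nM (0.05% DMSO), in 384-well plates for 2 hours at 30° C. Luminescence was read after adding ADP-Glo and Kinase Detection reagents. IC50 came from four-parameter curve fits.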
# T2 sequence (P15056 whole entry): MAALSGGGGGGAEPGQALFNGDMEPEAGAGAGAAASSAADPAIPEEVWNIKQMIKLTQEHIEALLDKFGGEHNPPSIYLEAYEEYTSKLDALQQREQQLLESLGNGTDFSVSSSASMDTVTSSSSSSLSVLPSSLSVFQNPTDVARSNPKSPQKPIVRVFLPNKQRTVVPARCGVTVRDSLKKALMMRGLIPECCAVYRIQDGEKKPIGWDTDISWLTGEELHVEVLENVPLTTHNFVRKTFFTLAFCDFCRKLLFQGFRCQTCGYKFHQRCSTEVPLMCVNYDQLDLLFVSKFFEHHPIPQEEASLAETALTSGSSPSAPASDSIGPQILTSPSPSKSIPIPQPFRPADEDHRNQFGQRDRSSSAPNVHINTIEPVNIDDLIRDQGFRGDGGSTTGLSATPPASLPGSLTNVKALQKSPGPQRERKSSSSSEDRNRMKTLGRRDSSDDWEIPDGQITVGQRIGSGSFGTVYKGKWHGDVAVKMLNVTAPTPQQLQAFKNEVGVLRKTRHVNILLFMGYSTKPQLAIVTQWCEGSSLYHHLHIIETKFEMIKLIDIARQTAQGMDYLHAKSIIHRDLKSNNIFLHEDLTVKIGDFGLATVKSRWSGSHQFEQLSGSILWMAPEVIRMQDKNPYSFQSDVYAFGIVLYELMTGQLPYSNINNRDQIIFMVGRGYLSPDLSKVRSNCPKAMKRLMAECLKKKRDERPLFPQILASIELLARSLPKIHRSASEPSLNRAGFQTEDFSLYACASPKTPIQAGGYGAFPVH
# Chain of CRAF (P04049 whole entry): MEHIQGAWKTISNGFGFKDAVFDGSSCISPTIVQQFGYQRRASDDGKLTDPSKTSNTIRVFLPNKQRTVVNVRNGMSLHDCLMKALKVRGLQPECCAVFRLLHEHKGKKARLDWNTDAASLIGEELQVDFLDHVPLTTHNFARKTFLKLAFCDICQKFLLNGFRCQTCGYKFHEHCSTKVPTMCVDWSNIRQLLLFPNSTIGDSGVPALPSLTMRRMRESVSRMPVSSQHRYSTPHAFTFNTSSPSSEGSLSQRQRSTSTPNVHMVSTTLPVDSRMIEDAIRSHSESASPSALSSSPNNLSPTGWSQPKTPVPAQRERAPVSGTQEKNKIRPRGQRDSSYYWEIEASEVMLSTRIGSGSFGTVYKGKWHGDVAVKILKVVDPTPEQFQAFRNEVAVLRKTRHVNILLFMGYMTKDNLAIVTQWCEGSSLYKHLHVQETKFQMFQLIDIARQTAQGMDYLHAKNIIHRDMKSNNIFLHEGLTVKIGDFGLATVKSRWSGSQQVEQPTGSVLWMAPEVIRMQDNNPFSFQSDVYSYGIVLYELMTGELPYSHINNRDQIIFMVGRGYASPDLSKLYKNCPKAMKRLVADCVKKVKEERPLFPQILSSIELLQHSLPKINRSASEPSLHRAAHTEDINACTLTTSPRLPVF
Structure (SMILES),IC50 [1] [nM],IC50 [2] [nM],IC50 [3] [nM]
"Cc1ccc2c(Nc3cccc(Cl)c3F)nccc2c1NC(=O)c1csc2c(N)ncnc12 [Belvarafenib, reference compound]",> 20,,
Nc1cccc2c1ncn2-c1ncc2ncnc(Nc3c(F)ccc(NS(=O)(=O)c4cccc(Cl)c4Cl)c3F)c2n1 [Example 80],,< 1,< 10
COc1ccc(S(=O)(=O)Nc2ccc(F)c(Nc3ncnc4cnc(-n5cnc6c(N)cccc65)nc34)c2F)c(C)c1Cl [Example 112],> 20,> 10,10 to 50

# Second part, the molecule after the results:
IC50 [1] [nM],IC50 [2] [nM],IC50 [3] [nM],Structure (SMILES)
10 to 20,< 1,10 to 50,Cc1c(F)cccc1S(=O)(=O)Nc1ccc(F)c(Nc2ncnc3cnc(-n4cc(C(=O)N(C)Cc5ccncc5)c5ccccc54)nc23)c1F [Example 98]
< 10,1 to 10,10 to 50,Cc1c(F)cccc1S(=O)(=O)Nc1ccc(F)c(Nc2ncnc3cnc(-n4cnc5c(-c6cccnc6)cccc54)nc23)c1F [Example 114]
10 to 20,> 10,10 to 50,O=S(=O)(Nc1ccc(F)c(Nc2ncnc3cnc(-n4cnc5c(N6CCC7(CCCO7)CC6)cccc54)nc23)c1F)c1cccc(Cl)c1Cl [Example 129]
